Measured values reported in patent publication US10940139B2, “Compounds that interact with the Ras superfamily for the treatment of cancers, inflammatory diseases, rasopathies, and fibrotic disease” (Shy Therapeutics LLC, priority 2017, dated 2021).

Tested on: MIA-PACA2 pancreatic cancer cell lines
Experiment: Cell proliferation assay (CellTiter 96 AQueous One)
Format: cell-based
Conditions: Homo sapiens, MIA PaCa-2; for inhibition at 30 µM: MIA-PACA2; for IC50: MIA-PACA2, same assay as the % inhibition (standard conditions)

SMILES: CON(C)c1nc(-c2ccccn2)nc2scc(-c3ccccc3)c12 [drawing 1610]
- inhibition at 30 µM: 76 to 100%

SMILES: O=C(CN1CCN(c2nc(-c3ccccn3)nc3scc(-c4ccccc4)c23)CC1)N1CCCCC1 [drawing 1611]
- inhibition at 30 µM: 76 to 100%

SMILES: O=C(CNc1nc(-c2ccccn2)nc2scc(-c3ccccc3)c12)NC1CC1 [drawing 1612]
- inhibition at 30 µM: 76 to 100%

SMILES: CCN(CC)C(=O)CN1CCN(c2nc(-c3ccccn3)nc3scc(-c4ccccc4)c23)CC1 [drawing 1613]
- inhibition at 30 µM: 76 to 100%

SMILES: CC(C)CNC(=O)CN1CCN(c2nc(-c3ccccn3)nc3scc(-c4ccccc4)c23)CC1 [drawing 1614]
- inhibition at 30 µM: 76 to 100%

SMILES: O=S1(=O)CCC(Nc2nc(-c3ccccn3)nc3scc(-c4ccccc4)c23)C1 (stereo not shown) [drawing 1615]
- inhibition at 30 µM: 76 to 100%

SMILES: c1ccc(-c2csc3nc(-c4ccccn4)nc(N4CCN(CCN5CCCC5)CC4)c23)cc1 [drawing 1616]
- inhibition at 30 µM: 76 to 100%

SMILES: OC1CCCN(c2nc(-c3ccccn3)nc3scc(-c4ccccc4)c23)C1 (stereo not shown) [drawing 1617]
- inhibition at 30 µM: 76 to 100%

SMILES: c1ccc(-c2csc3nc(-c4ccccn4)nc(N4CCOCC4)c23)cc1 [drawing 1618]
- inhibition at 30 µM: 76 to 100%

SMILES: OC1CCN(c2nc(-c3ccccn3)nc3scc(-c4ccccc4)c23)CC1 [drawing 1619]
- inhibition at 30 µM: 76 to 100%

SMILES: O=C(CN1CCN(c2nc(-c3ccccn3)nc3scc(-c4ccccc4)c23)CC1)N1CCCC1 [drawing 1620]
- inhibition at 30 µM: 76 to 100%

SMILES: O=C(CN1CCN(c2nc(-c3ccccn3)nc3scc(-c4ccccc4)c23)CC1)NC1CC1 [drawing 1621]
- inhibition at 30 µM: 76 to 100%

SMILES: O=C(C1CCN(c2nc(-c3ccccn3)nc3scc(-c4ccccc4)c23)CC1)N1CCCCC1 [drawing 1622]
- inhibition at 30 µM: 76 to 100%

SMILES: c1ccc(-c2csc3nc(-c4ccccn4)nc(NN4CCOCC4)c23)cc1 [drawing 1623]
- inhibition at 30 µM: 76 to 100%

SMILES: NC(=O)C1CCCN(c2nc(-c3ccccn3)nc3scc(-c4ccccc4)c23)C1 (stereo not shown) [drawing 1624]
- inhibition at 30 µM: 76 to 100%

SMILES: COCCNc1nc(-c2ccccn2)nc2scc(-c3ccccc3)c12 [drawing 1625]
- inhibition at 30 µM: 76 to 100%

SMILES: CC(=O)N1CCN(c2nc(-c3ccccn3)nc3scc(-c4ccccc4)c23)CC1 [drawing 1626]
- inhibition at 30 µM: 76 to 100%

SMILES: O=C1CCN(c2nc(-c3ccccn3)nc3scc(-c4ccccc4)c23)CC1 [drawing 1627]
- inhibition at 30 µM: 76 to 100%

SMILES: Nc1nc(O)c2nc[nH]c2n1 [drawing 1629]
- inhibition at 30 µM: 1 to 25%

SMILES: Cc1sc2nc(N)nc(O)c2c1C [drawing 1630]
- inhibition at 30 µM: 1 to 25%

SMILES: COc1ccnc(-c2nc(O)c3ccsc3n2)c1 [drawing 1631]
- IC50: 100 to 500 nM
- inhibition at 30 µM: 76 to 100%

SMILES: COc1cccc(N2CCN(C(=O)c3csc4c(O)nc(-c5ccccn5)nc34)CC2)c1 [drawing 1632]
- IC50: 100 to 500 nM
- inhibition at 30 µM: 76 to 100%

SMILES: Cc1ccccc1N1CCN(C(=O)c2csc3c(O)nc(-c4ccccn4)nc23)CC1 [drawing 1633]
- inhibition at 30 µM: 76 to 100%

SMILES: O=C(c1csc2c(O)nc(-c3ccccn3)nc12)N1CCN(Cc2cccc(O)c2)CC1 [drawing 1634]
- inhibition at 30 µM: 76 to 100%

SMILES: O=C(c1csc2c(O)nc(-c3ccccn3)nc12)N1CCOC(c2cccc(F)c2)C1 (stereo not shown) [drawing 1635]
- inhibition at 30 µM: 76 to 100%

SMILES: O=C(c1csc2c(O)nc(-c3ccccn3)nc12)N1CCOC(c2nccs2)C1 (stereo not shown) [drawing 1636]
- inhibition at 30 µM: 76 to 100%

SMILES: COc1ccnc(-c2nc(O)c3c(Br)csc3n2)c1 [drawing 1637]
- IC50: 100 to 500 nM
- inhibition at 30 µM: 76 to 100%

SMILES: O=C(NCCc1cccnc1)c1csc2nc(-c3ccccn3)nc(N3CCOCC3)c12 [drawing 1638]
- inhibition at 30 µM: 76 to 100%

SMILES: COc1ccc(CCNC(=O)c2csc3nc(-c4ccccn4)nc(N4CCOCC4)c23)cn1 [drawing 1639]
- inhibition at 30 µM: 51 to 75%

SMILES: COc1ccc(CCN(C)C(=O)c2csc3nc(-c4ccccn4)nc(N4CCOCC4)c23)cn1 [drawing 1640]
- inhibition at 30 µM: 76 to 100%

SMILES: COc1cc(CCNC(=O)c2csc3nc(-c4ccccn4)nc(N4CCOCC4)c23)ccn1 [drawing 1641]
- inhibition at 30 µM: 51 to 75%

SMILES: COc1ncc(CCNC(=O)c2csc3nc(-c4ccccn4)nc(N4CCOCC4)c23)cn1 [drawing 1642]
- inhibition at 30 µM: 76 to 100%

SMILES: O=C(NCCc1cncs1)c1csc2nc(-c3ccccn3)nc(N3CCOCC3)c12 [drawing 1643]
- inhibition at 30 µM: 76 to 100%

SMILES: N#Cc1ccc(CCNC(=O)c2csc3nc(-c4ccccn4)nc(N4CCOCC4)c23)cc1 [drawing 1644]
- inhibition at 30 µM: 25 to 50%

SMILES: CC(C)(C(=O)Nc1ccnc(-c2ccccn2)n1)c1ccc(C#N)cc1 [drawing 1645]
- inhibition at 30 µM: 76 to 100%

SMILES: CC(C)(C(=O)Nc1nc(-c2ccccn2)nc2sccc12)c1ccc(C#N)cc1 [drawing 1646]
- inhibition at 30 µM: 76 to 100%

SMILES: O=C(c1csc2c(O)nc(-c3ccccn3)nc12)N1CCN(c2cccc(F)c2)CC1 [drawing 1647]
- inhibition at 30 µM: 76 to 100%

SMILES: O=C(c1csc2c(O)nc(-c3ccccn3)nc12)N1CCN(c2ccc(F)cc2)CC1 [drawing 1648]
- inhibition at 30 µM: 76 to 100%

SMILES: N#Cc1cccc(N2CCN(C(=O)c3csc4c(O)nc(-c5ccccn5)nc34)CC2)c1 [drawing 1649]
- inhibition at 30 µM: 76 to 100%

SMILES: N#Cc1ccc(N2CCN(C(=O)c3csc4c(O)nc(-c5ccccn5)nc34)CC2)cc1 [drawing 1650]
- inhibition at 30 µM: 25 to 50%

SMILES: COc1cc(N2CCN(C(=O)c3csc4c(O)nc(-c5ccccn5)nc34)CC2)cc(OC)c1OC [drawing 1651]
- inhibition at 30 µM: 51 to 75%

SMILES: COc1ccc(N2CCN(C(=O)c3csc4c(O)nc(-c5ccccn5)nc34)CC2)c(OC)c1 [drawing 1652]
- inhibition at 30 µM: 76 to 100%

SMILES: O=C(c1csc2c(O)nc(-c3ccccn3)nc12)N1CCN(c2ccc(F)cc2F)CC1 [drawing 1653]
- inhibition at 30 µM: 76 to 100%

SMILES: CC1CN(c2ccccc2)CCN1C(=O)c1csc2c(O)nc(-c3ccccn3)nc12 (stereo not shown) [drawing 1654]
- IC50: 501 to 1000 nM
- inhibition at 30 µM: 76 to 100%

SMILES: O=C(c1csc2c(O)nc(-c3ccccn3)nc12)N1CCN(Cc2ccccc2)CC1 [drawing 1655]
- inhibition at 30 µM: 76 to 100%

SMILES: COc1cccc(CN2CCN(C(=O)c3csc4c(O)nc(-c5ccccn5)nc34)CC2)c1 [drawing 1656]
- inhibition at 30 µM: 76 to 100%

SMILES: O=C(c1csc2c(O)nc(-c3ccccn3)nc12)N1CCN(Cc2ccc(O)cc2)CC1 [drawing 1657]
- inhibition at 30 µM: 1 to 25%

SMILES: O=C(c1csc2c(O)nc(-c3ccccn3)nc12)N1CCN(Cc2ccc(O)c(Cl)c2)CC1 [drawing 1658]
- inhibition at 30 µM: 76 to 100%

SMILES: O=C(c1csc2c(O)nc(-c3ccccn3)nc12)N1CCOC(c2ccccc2)C1 (stereo not shown) [drawing 1659]
- inhibition at 30 µM: 76 to 100%

SMILES: COc1ccccc1C1CN(C(=O)c2csc3c(O)nc(-c4ccccn4)nc23)CCO1 (stereo not shown) [drawing 1660]
- inhibition at 30 µM: 76 to 100%

SMILES: COc1ccc(C2CN(C(=O)c3csc4c(O)nc(-c5ccccn5)nc34)CCO2)cc1 (stereo not shown) [drawing 1661]
- inhibition at 30 µM: 76 to 100%

SMILES: O=C(c1csc2c(O)nc(-c3ccccn3)nc12)N1CCOC(c2ccccc2Cl)C1 (stereo not shown) [drawing 1662]
- inhibition at 30 µM: 76 to 100%

SMILES: O=C(c1csc2c(O)nc(-c3ccccn3)nc12)N1CCOC(c2cccc(Cl)c2)C1 (stereo not shown) [drawing 1663]
- inhibition at 30 µM: 76 to 100%

SMILES: O=C(c1csc2c(O)nc(-c3ccccn3)nc12)N1CCOC(Cc2ccccc2)C1 (stereo not shown) [drawing 1664]
- inhibition at 30 µM: 76 to 100%

SMILES: COc1ccccc1C1CN(C(=O)c2csc3c(O)nc(-c4ccccn4)nc23)CCN1 (stereo not shown) [drawing 1665]
- inhibition at 30 µM: 76 to 100%

SMILES: COc1cccc(C2CN(C(=O)c3csc4c(O)nc(-c5ccccn5)nc34)CCN2)c1 (stereo not shown) [drawing 1666]
- inhibition at 30 µM: 76 to 100%

SMILES: COc1ccc(C2CN(C(=O)c3csc4c(O)nc(-c5ccccn5)nc34)CCN2)cc1 (stereo not shown) [drawing 1667]
- inhibition at 30 µM: 25 to 50%

SMILES: Cc1ccccc1C1CN(C(=O)c2csc3c(O)nc(-c4ccccn4)nc23)CCN1 (stereo not shown) [drawing 1668]
- inhibition at 30 µM: 76 to 100%

SMILES: O=C(c1csc2c(O)nc(-c3ccccn3)nc12)N1CCNC(c2ccccc2F)C1 (stereo not shown) [drawing 1669]
- inhibition at 30 µM: 76 to 100%

SMILES: Cn1cc(C2CN(C(=O)c3csc4c(O)nc(-c5ccccn5)nc34)CCN2)cn1 (stereo not shown) [drawing 1670]
- inhibition at 30 µM: 1 to 25%

SMILES: O=C(c1csc2c(O)nc(-c3ccccn3)nc12)N1CCNC(Cc2ccccc2)C1 (stereo not shown) [drawing 1671]
- inhibition at 30 µM: 76 to 100%

SMILES: O=C(NCCc1ccncc1)c1csc2nc(-c3ccccn3)nc(N3CCOCC3)c12 [drawing 1672]
- inhibition at 30 µM: 76 to 100%

SMILES: COc1ccncc1CCNC(=O)c1csc2nc(-c3ccccn3)nc(N3CCOCC3)c12 [drawing 1673]
- inhibition at 30 µM: 76 to 100%

SMILES: COc1cc(CCN(C)C(=O)c2csc3nc(-c4ccccn4)nc(N4CCOCC4)c23)ccn1 [drawing 1674]
- inhibition at 30 µM: 76 to 100%

SMILES: COc1ccnc(-c2nc(O)c3c(C#N)csc3n2)c1 [drawing 1675]
- inhibition at 30 µM: 76 to 100%

SMILES: O=C(NCCc1ccnc(O)c1)c1csc2nc(-c3ccccn3)nc(N3CCOCC3)c12 [drawing 1676]
- inhibition at 30 µM: 51 to 75%

SMILES: O=C(NCCc1cncnc1)c1csc2nc(-c3ccccn3)nc(N3CCOCC3)c12 [drawing 1677]
- inhibition at 30 µM: 76 to 100%

SMILES: O=C(NCCc1ccc(O)c(O)c1)c1csc2nc(-c3ccccn3)nc(N3CCOCC3)c12 [drawing 1678]
- inhibition at 30 µM: 76 to 100%

SMILES: O=C(NCCc1nnn[nH]1)c1csc2nc(-c3ccccn3)nc(N3CCOCC3)c12 [drawing 1679]
- inhibition at 30 µM: 51 to 75%

SMILES: N#Cc1cccc(CCNC(=O)c2csc3nc(-c4ccccn4)nc(N4CCOCC4)c23)c1 [drawing 1680]
- inhibition at 30 µM: 76 to 100%

SMILES: CN(CCc1cccc(C#N)c1)C(=O)c1csc2nc(-c3ccccn3)nc(N3CCOCC3)c12 [drawing 1681]
- inhibition at 30 µM: 76 to 100%

SMILES: COCCCCNC(=O)c1csc2nc(-c3ccccn3)nc(N3CCOCC3)c12 [drawing 1682]
- inhibition at 30 µM: 76 to 100%

SMILES: COCCCCN(C)C(=O)c1csc2nc(-c3ccccn3)nc(N3CCOCC3)c12 [drawing 1683]
- inhibition at 30 µM: 76 to 100%

SMILES: CNS(=O)(=O)CCCNC(=O)c1csc2nc(-c3ccccn3)nc(N3CCOCC3)c12 [drawing 1684]
- inhibition at 30 µM: 76 to 100%

SMILES: COCCN(CCOC)c1nc(-c2ccccn2)nc2scc(C(=O)NCCc3ccc(OC)nc3)c12 [drawing 1685]
- inhibition at 30 µM: 76 to 100%

SMILES: COCCCCNC(=O)c1csc2nc(-c3ccccn3)nc(N(CCOC)CCOC)c12 [drawing 1686]
- inhibition at 30 µM: 76 to 100%

SMILES: CC(C(=O)Nc1ccnc(-c2ccccn2)n1)c1ccc(C#N)cc1 (stereo not shown) [drawing 1687]
- inhibition at 30 µM: 76 to 100%

SMILES: COc1ccc2c(c1)CCC2C(=O)Nc1ccnc(-c2ccccn2)n1 (stereo not shown) [drawing 1688]
- inhibition at 30 µM: 76 to 100%
